A short description of data set [1]: Antiviral activity against Influenza A virus (A/WUHAN/359/1995(H3N2)) infected in dog MDCK cells assessed as inhibition of virus-induced cytopathogenicity incubated for 48 hrs. Format: functional, cell-based. (In general: Damage to the host cells serves as the signal in cytopathic effect assays.)
The subject of data set [2] is Influenza A virus. Description: Antiviral activity against Influenza A virus (A/Fort Monmouth/1/1947(H1N1)) infected in dog MDCK cells assessed as inhibition of virus-induced cytopathogenicity incubated for 48 hrs. The format is functional, organism-based.
Data set [3] in a line: Selectivity index, ratio of TC50 for MDCK cells to IC50 for antiviral activity against Influenza A virus (A/WUHAN/359/1995(H3N2)) infected in MDCK cells. The format is toxicity, cell-based. The conditions noted are these: dog, read-out: Selectivity Index.
The subject of data set [4] is MDCK. Kind of data set: Cytotoxicity against MDCK cells assessed as reduction in cell viability at 20 uM measured after 48 hrs by CCK8 assay. The format is cell-based, Canis lupus familiaris. The conditions noted are these: dog. On the technique in general: Tetrazolium dyes change colour on reduction, which living cells bring about.
Data set [5] is described as follows: Cytotoxicity against MDCK cells assessed as reduction in cell viability measured after 48 hrs by CCK8 assay. Format: cell-based, Canis lupus familiaris. As to conditions: dog, read-out: TC50.
Data set [6] in a line: Selectivity index, ratio of TC50 for MDCK cells to IC50 for antiviral activity against Influenza A virus (A/Fort Monmouth/1/1947(H1N1)) infected in MDCK cells. Format: toxicity, cell-based. As to conditions: dog, read-out: Selectivity Index.
In data set [7] the test system is Influenza A virus. Description: Antiviral activity against Influenza A virus (A/Fort Monmouth/1/1947(H1N1)) infected in dog MDCK cells assessed as downregulation of M2 mRNA level measured after 2 hrs by qRT-PCR. Format: functional, organism-based. In general terms: Real-time PCR tracks product formation cycle by cycle.
For data set [8], the system named is HEK293T. Kind of data set: Inhibition of Influenza A virus RdRP transfected in HEK293T cells co-transfected with NP/PA/PB1/PB2/pRL-SV40 incubated for 24 hrs by DualGlo-luciferase assay. The format is cell-based.
In data set [9] the test system is Influenza A virus. Kind of data set: Antiviral activity against Influenza A virus (A/Fort Monmouth/1/1947(H1N1)) infected in dog MDCK cells assessed as inhibition of M2 RNA level at 3 nM measured after 2 hrs by qRT-PCR relative to control. Format: functional.
The subject of data set [10] is Influenza A virus. Kind of data set: Antiviral activity against Influenza A virus (A/Fort Monmouth/1/1947(H1N1)) infected in dog MDCK cells assessed as inhibition of M2 protein measured after 18 hrs by immunofluorescence microscopic analysis. The format is functional, organism-based.
For data set [11], the system named is HEK293T. Kind of data set: Inhibition of Influenza A virus RdRP transfected in HEK293T cells co-transfected with NP/PA/PB1/PB2/pRL-SV40 at 1 nM incubated for 24 hrs by minireplicon based dual luciferase assay relative to control. The format is cell-based.
Data set [12] in a line: AUC (0 to t) in Sprague-Dawley rat at 5 mg/kg, po measured after 24 hrs by LC-MS/MS analysis. On the set-up: time 24 hrs, dose 5 mg/kg, route po. Format: ADME, organism-based. As to conditions: in vivo.
Data set [13] is described as follows: Clearance in human liver microsomes in presence of NADPH generating system by LC-MS/MS analysis. The format is ADME, Microsome.
The nature of data set [14]: Clearance in mouse liver microsomes in presence of NADPH generating system by LC-MS/MS analysis. The format is ADME, Microsome.
The nature of data set [15]: Half life in mouse liver microsomes in presence of NADPH generating system by LC-MS/MS analysis. Format: ADME, Microsome.
A short description of data set [16]: Oral bioavailability Sprague-Dawley rat at 5 mg/kg measured after 24 hrs by LC-MS/MS analysis. The conditions noted are these: in vivo. The format is ADME, organism-based.
Data set [17] is described as follows: Clearance in rat liver microsomes in presence of NADPH generating system by LC-MS/MS analysis. The format is ADME, Microsome.
Data set [18] can be described thus: Half life in rat liver microsomes in presence of NADPH generating system by LC-MS/MS analysis. Format: ADME, Microsome.
Data set [19] can be described thus: Tmax in Sprague-Dawley rat at 5 mg/kg, po measured after 24 hrs by LC-MS/MS analysis. Format: ADME, organism-based. The conditions noted are these: in vivo.
Data set [20] can be described thus: AUC (0 to infinity) in Sprague-Dawley rat at 5 mg/kg, po measured after 24 hrs by LC-MS/MS analysis. The format is ADME, organism-based. Details: time 24 hrs, dose 5 mg/kg, route po. As to conditions: in vivo.
Data set [21] in a line: Half life in human liver microsomes in presence of NADPH generating system by LC-MS/MS analysis. The format is ADME, Microsome.
A short description of data set [22]: Cmax in Sprague-Dawley rat at 5 mg/kg, po measured after 24 hrs by LC-MS/MS analysis. Details: dose 5 mg/kg, time 24 hrs, route po. Format: ADME, organism-based. The conditions noted are these: in vivo.
Data set [23] in a line: Half life in Sprague-Dawley rat at 5 mg/kg, po measured after 24 hrs by LC-MS/MS analysis. Format: ADME, organism-based. The conditions noted are these: in vivo.

In the case of `O=C1c2c(O)c(=O)ccn2N(C2c3ccccc3C=Cc3ccc(Br)cc32)[C@@H]2COCCN12` (mixture of isomers), the IC50 in data set [1] worked out at 0.0267 µM; in [2], 0.0194 µM. Besides, the selectivity ratio in data set [3] was over 7490; in [6] it was over 10300. In addition, the Activity entry in [4] is listed as “Non-Toxic”. In addition, in data set [5], the CC50 at 48 h is over 200 µM.
Consider `O=C1c2c(O)c(=O)ccn2N(C2c3ccccc3C=Cc3ccc(F)cc32)[C@@H]2COCCN12` (mixture of isomers), for which the Activity result in data set [7] was “Dose-dependent effect”; in data set [4], “Non-Toxic”. Further, the IC50 in data set [1] came out at 0.00177 µM; in data set [2], 0.00291 µM. Also, the selectivity ratio was over 113000 in data set [3] and over 68700 in data set [6]. Besides, the CC50 at 48 h in [5] was over 200 µM.
For the molecule `O=C1c2c(O)c(=O)ccn2N(C2c3ccccc3C=Cc3cc(F)ccc32)[C@@H]2COCCN12` (mixture of isomers), the Activity result in [7] is “Dose-dependent effect”; in data set [4] it was “Non-Toxic”. In addition, the IC50 in data set [1] was found to be 0.00082 µM; in data set [2] it was 0.00051 µM. Also, the selectivity ratio was found to be 72600 in data set [3] and 117000 in data set [6]. Further, the CC50 at 48 h in [5] came out at 59.5 µM.
As for `O=C1c2c(O)c(=O)ccn2N(C2c3ccccc3C=Cc3c(Cl)cccc32)[C@@H]2COCCN12` (mixture of isomers), the Activity result in data set [7] and in data set [10] was “Dose-dependent effect” each time. For the same molecule, the concentration for half-maximal inhibition (IC50) was determined as 0.00053 µM in [1] and 0.00059 µM in [2]. In addition, the selectivity ratio stood at 16100 in [3] and 14500 in data set [6]. The inhibition entry in [8] was “Dose-dependent effect”; in data set [11], 53.5%. Besides, the inhibition at 0.003 µM in data set [9] was determined as 76.3%. The CC50 at 48 h in data set [5] came to 8.53 µM.
Turning to `O=C1c2c(O)c(=O)ccn2N(C2c3ccccc3C=Cc3ccccc32)[C@@H]2COCCN12`, the AUC(0-t) at 24 h in data set [12] worked out at 0.295 µg·h/mL. Moreover, the CLH worked out at 79.04 µmol/min/g in [13], 73.9 microL/ml/min in [14] and 14.49 microL/ml/min in data set [17]. The Activity result in [7] was “Dose-dependent effect”; in data set [10], “Dose-dependent effect”; in data set [4], “Non-Toxic”. The half-maximal inhibitory concentration (IC50) was determined as 0.00038 µM in [1] and 0.00042 µM in [2]. Also, the half-life is 31.4 h in [15], 73.8 h in data set [18], 221 h in data set [21] and 1.7 h in data set [23]. Further, the bioavailability in [16] was 22.9%. Also, the selectivity ratio was determined as 497000 in data set [3] and 450000 in data set [6]. Moreover, the time of peak concentration (Tmax) in data set [19] came to 0.83 h. In data set [20], the total exposure AUC(0-inf) worked out at 0.311 µg·h/mL. For the same molecule, the inhibition result is “Dose-dependent effect” in [8] and 50% in data set [11]. Besides, the inhibition at 0.003 µM in data set [9] was 88.5%. For the same molecule, the Cmax in data set [22] was determined as 0.0881 µg/mL. Also, in data set [5], the CC50 at 48 h was 189 µM.
On to `O=C1c2c(O)c(=O)ccn2N(C2c3ccccc3C=Cc3cc(Cl)ccc32)[C@@H]2COCCN12` (mixture of isomers), for which the IC50 in data set [1] came to 0.00469 µM; in data set [2], 0.00717 µM. Also, the values for the selectivity ratio in [3] and in [6] were 4090 and 2670, respectively. Further, in data set [5], the CC50 at 48 h turned out to be 19.2 µM.
Taken in the same sequence, the figures for `O=C1c2c(O)c(=O)ccn2N(C2c3ccccc3C=Cc3cc(Br)ccc32)[C@@H]2COCCN12` (mixture of isomers) were 0.0151 µM, 0.0106 µM, 1440, 2050 and 21.7 µM.
In the case of `Cc1ccc2c(c1)C(N1[C@@H]3COCCN3C(=O)c3c(O)c(=O)ccn31)c1ccccc1C=C2` (mixture of isomers), the IC50 was 0.111 µM in data set [1] and 0.0393 µM in data set [2]. Besides, the values for the selectivity ratio in data set [3] and in data set [6] were 472 and 1330, respectively. In addition, the Activity result in [4] is “Non-Toxic”. Moreover, the CC50 at 48 h in [5] was 52.4 µM.
As for `COc1ccc2c(c1)C(N1[C@@H]3COCCN3C(=O)c3c(O)c(=O)ccn31)c1ccccc1C=C2` (mixture of isomers), the figures for the IC50 in [1] and in data set [2] were 0.128 µM and 0.281 µM, respectively. In addition, the selectivity ratio in [3] is over 1560; in [6] it was over 711. The Activity result in data set [4] is “Non-Toxic”. Further, in data set [5], the CC50 at 48 h is over 200 µM.
`O=C1c2c(O)c(=O)ccn2N(C2c3ccccc3C=Cc3ccc(Cl)cc32)[C@@H]2COCCN12` (mixture of isomers): the concentration for half-maximal inhibition (IC50) was 0.0152 µM in data set [1] and 0.0143 µM in data set [2]. The figures for the selectivity ratio in [3] and in [6] were 1330 and 1440, respectively. Also, the CC50 at 48 h in data set [5] came out at 20.1 µM.
With `O=C1c2c(O)c(=O)ccn2N(C2c3ccccc3C=Cc3c(F)cccc32)[C@@H]2COCCN12` (mixture of isomers), the Activity result in [7] and in data set [10] was “Dose-dependent effect” each time. The concentration for half-maximal inhibition (IC50) was 0.00057 µM in [1] and 0.00039 µM in data set [2]. Also, the selectivity ratio is 34000 in [3] and 49600 in data set [6]. In addition, the inhibition entry was “Dose-dependent effect” in data set [8] and 48.5% in [11]. Besides, in [9], the inhibition at 0.003 µM stood at 86%. Also, the CC50 at 48 h in data set [5] amounted to 19.4 µM.

As usually defined, the IC50 is the concentration needed to halve the response being measured. The inhibition is the relative decrease from the control value, in per cent. What is called AUC(0-t) is exposure summed from dosing to a finite time, without extrapolation to infinity. Lower therefore signals low exposure. As a reminder, the half-life is the time in which the quantity being followed falls by half. Broadly, the bioavailability is the share of a dose that reaches the circulation, judged against a reference dose that is usually intravenous. Low values mean poor availability, high ones good availability. As usually defined, the Tmax is the time at which the peak concentration occurs. What is called AUC(0-inf) is the area under the concentration-time curve extrapolated to infinity. Read a high AUC(0-inf) as more exposure. The term Cmax denotes the peak of the concentration-time curve.

The values are drawn from ChEMBL document CHEMBL5053514, “Synthesis and Anti-Influenza Virus Effects of Novel Substituted Polycyclic Pyridone Derivatives Modified from Baloxavir” (J Med Chem, 2021).
